Results taken from ChEMBL document CHEMBL1155955, “Structure-activity relationship studies of the chromosome segregation inhibitor, Incentrom A” (2008).
Values after ≈ are worked out from the molar mass of the structure shown. Active and inactive are the calls of the source. The rule behind the calls is not given here.

What follows are compounds tested on Saccharomyces cerevisiae (assay: Antiproliferative activity against yeast YPH278 assessed as reduction in cell viability after 24 hrs).
Format: functional

| SMILES | MIC |
| --- | --- |
| O=C(OC(Cc1ccccc1)CN1CCN(CCCCn2c3ccccc3c3ccccc32)CC1)c1ccccc1 (stereo unspecified) | > 45 µM |
| OC(CN1CCN(CCCc2ccccc2)CC1)Cn1c2ccccc2c2ccccc21 (stereo unspecified) | 20 µM (≈ 8.55 µg/mL) |
| C(=C\c1ccccc1)/CN1CCN(CCCn2c3ccccc3c3ccccc32)CC1 | 12 µM (≈ 4.91 µg/mL) |
| O=[N+]([O-])c1ccc2c(c1)c1ccccc1n2CCCCN1CCN(C/C=C/c2ccccc2)CC1 | 5 µM (≈ 2.34 µg/mL) |
| OC(CN1CCN(C/C=C/c2ccccc2)CC1)CN1c2ccccc2Oc2ccccc21 (stereo unspecified) | 7 µM (≈ 3.09 µg/mL) |
| OC(CN1CCN(C/C=C/c2ccccc2)CC1)Cn1c2c(c3ccccc31)CCCC2 (stereo unspecified) | 25 µM (≈ 10.7 µg/mL) |
| OC(CN1CCN(C/C=C/c2ccccc2)CC1)Cn1c2ccccc2c2ccccc21 (stereo unspecified) | 15 µM (≈ 6.38 µg/mL) |
| O=C(CN1CCN(C/C=C/c2ccccc2)CC1)Cn1c2ccccc2c2ccccc21 | > 45 µM |
| CN(C)c1ccc(/C=C/CN2CCN(CCCCn3c4ccccc4c4ccccc43)CC2)cc1 | 42 µM (≈ 19.6 µg/mL) |
| [N-]=[N+]=NC(CN1CCN(C/C=C/c2ccccc2)CC1)Cn1c2ccccc2c2ccccc21 (stereo unspecified) | > 45 µM |
| O=C(OC(CN1CCN(C/C=C/c2ccccc2)CC1)Cn1c2ccccc2c2ccccc21)c1ccccc1 (stereo unspecified) | > 45 µM |
| CCCCCCCCOc1ccc(CCCN2CCN(CCCCn3c4ccccc4c4ccccc43)CC2)cc1 | > 45 µM |
| OC(CN1CCN(Cc2ccccc2)CC1)Cn1c2ccccc2c2ccccc21 (stereo unspecified) | > 45 µM |
| C(=C\c1ccccc1)/CN1CCN(CCCCCCCCn2c3ccccc3c3ccccc32)CC1 | 44 µM (≈ 21.1 µg/mL) |
| [N-]=[N+]=Nc1ccc(/C=C/CN2CCN(CCCCn3c4ccccc4c4ccccc43)CC2)cc1 | 5 µM (≈ 2.32 µg/mL) |
| c1ccc(COc2ccc(CCCN3CCN(CCCCn4c5ccccc5c5ccccc54)CC3)cc2)cc1 | > 45 µM |
| CC(=O)Nc1ccc2c(c1)c1ccccc1n2CCCCN1CCN(C/C=C/c2ccccc2)CC1 | > 45 µM |
| CC(=O)OC(Cc1ccccc1)CN1CCN(CCCCn2c3ccccc3c3ccccc32)CC1 (stereo unspecified) | 18 µM (≈ 8.71 µg/mL) |
| c1ccc2cc(CN3CCN(CCCCn4c5ccccc5c5ccccc54)CC3)ccc2c1 | 30 µM (≈ 13.4 µg/mL) |
| C(=C\c1ccccc1)/CN1CCN(CCCCn2c3c(c4ccccc42)CCCC3)CC1 | 10 µM (≈ 4.28 µg/mL) |
| CCCCCCOc1ccc(CCCN2CCN(CCCCn3c4ccccc4c4ccccc43)CC2)cc1 | > 45 µM |
| O[C@H](CN1CCN(C/C=C/c2ccccc2)CC1)Cn1c2ccccc2c2ccccc21 | 14 µM (≈ 5.96 µg/mL) |
| O=c1c2ccccc2n(CCCCN2CCN(C/C=C/c3ccccc3)CC2)c2ccccc12 | > 45 µM |
| O[C@@H](CN1CCN(C/C=C/c2ccccc2)CC1)Cn1c2ccccc2c2ccccc21 | 15 µM (≈ 6.38 µg/mL) |
| O=C(Nc1ccc2c(c1)c1ccccc1n2CCCCN1CCN(C/C=C/c2ccccc2)CC1)c1ccccc1 | > 45 µM |
| OC(CN1CCN(C/C=C/c2ccccc2)CC1)Cn1ccc2ccccc21 (stereo unspecified) | > 45 µM |
| OC(CN1CCN(C/C=C/c2ccccc2)CC1)CN(c1ccccc1)c1ccccc1 (stereo unspecified) | 45 µM (≈ 19.2 µg/mL) |
| COc1cccc(/C=C/CN2CCN(CCCCn3c4ccccc4c4ccccc43)CC2)c1 | 12 µM (≈ 5.44 µg/mL) |
| CC(=O)OC(CN1CCN(C/C=C/c2ccccc2)CC1)Cn1c2ccccc2c2ccccc21 (stereo unspecified) | 18 µM (≈ 8.42 µg/mL) |

Continued, values first:

| MIC | SMILES |
| --- | --- |
| 7 µM (≈ 3.08 µg/mL) | c1ccc(C2OC2CN2CCN(CCCCn3c4ccccc4c4ccccc43)CC2)cc1 (stereo unspecified) |
| 5 µM (≈ 2.2 µg/mL) | c1ccc(CCCCN2CCN(CCCCn3c4ccccc4c4ccccc43)CC2)cc1 |
| 27 µM (≈ 11.9 µg/mL) | Oc1cccc(/C=C/CN2CCN(CCCCn3c4ccccc4c4ccccc43)CC2)c1 |
| 5 µM (≈ 2.16 µg/mL) | c1ccc2c(c1)c1ccccc1n2CCCCN1CCN(CCCC2CCCCC2)CC1 |
| 7 µM (≈ 3.16 µg/mL) | C(=C\c1ccccc1)/CN1CCN(CCCCCCn2c3ccccc3c3ccccc32)CC1 |
| 8 µM (≈ 3.65 µg/mL) | COc1ccc(CCCN2CCN(CCCCn3c4ccccc4c4ccccc43)CC2)cc1 |
| 28 µM (≈ 12.4 µg/mL) | Oc1ccc(CCCN2CCN(CCCCn3c4ccccc4c4ccccc43)CC2)cc1 |
| 16 µM (≈ 7.05 µg/mL) | Nc1ccc(CCCN2CCN(CCCCn3c4ccccc4c4ccccc43)CC2)cc1 |
| 4 µM (≈ 1.81 µg/mL) | c1ccc(CCCCCN2CCN(CCCCn3c4ccccc4c4ccccc43)CC2)cc1 |
| 5 µM (≈ 2.12 µg/mL) | C(=C\c1ccccc1)/CN1CCN(CCCCn2c3ccccc3c3ccccc32)CC1 |
| 9 µM (≈ 3.7 µg/mL) | c1ccc(CCN2CCN(CCCCn3c4ccccc4c4ccccc43)CC2)cc1 |
| 15 µM (≈ 6.58 µg/mL) | Nc1ccc(/C=C/CN2CCN(CCCCn3c4ccccc4c4ccccc43)CC2)cc1 |
| 12 µM (≈ 5.3 µg/mL) | OC(Cc1ccccc1)CN1CCN(CCCCn2c3ccccc3c3ccccc32)CC1 (stereo unspecified) |
| 6 µM (≈ 2.63 µg/mL) | C(=C\c1ccccc1)/CN1CCN(CCCCCn2c3ccccc3c3ccccc32)CC1 |

What follows are compounds tested on Saccharomyces cerevisiae (assay: Inhibition of chromosome segregation in yeast YPH278 at 15 uM).
Format: functional, organism-based

| SMILES | Activity |
| --- | --- |
| OC(CN1CCN(C/C=C/c2ccccc2)CC1)Cn1c2ccccc2c2ccccc21 (stereo unspecified) | Active |

These compounds were tested on Saccharomyces cerevisiae (assay: Inhibition of chromosome segregation in yeast YPH278 at 5 uM).
Format: functional, organism-based

| SMILES | Activity |
| --- | --- |
| [N-]=[N+]=Nc1ccc(/C=C/CN2CCN(CCCCn3c4ccccc4c4ccccc43)CC2)cc1 | Active |
| C(=C\c1ccccc1)/CN1CCN(CCCCn2c3ccccc3c3ccccc32)CC1 | Active |
